In ChEMBL document CHEMBL1201862, “PubChem BioAssay data set” (2004):
Each block holds one molecule with its values, some of them ahead of it. Calls of active or inactive are those of the source.

Columns and labels:
[1] = P. falciparum Dd2 growth inhibitors, dose response, SYBR Green, dry powder samples, set 4 (AID 1159572); type: functional, cell-based
[2] = target: T1, Rac GTPase-activating protein 1 (Homo sapiens, UniProt Q9H0H5); experiment: MgcRacGAP GTPase-activating activity inhibitors, confirmation, biochemical, ADP Hunter fluorescence, primary and confirmatory (AID 624330); type: functional
T1 sequence (Q9H0H5 whole entry): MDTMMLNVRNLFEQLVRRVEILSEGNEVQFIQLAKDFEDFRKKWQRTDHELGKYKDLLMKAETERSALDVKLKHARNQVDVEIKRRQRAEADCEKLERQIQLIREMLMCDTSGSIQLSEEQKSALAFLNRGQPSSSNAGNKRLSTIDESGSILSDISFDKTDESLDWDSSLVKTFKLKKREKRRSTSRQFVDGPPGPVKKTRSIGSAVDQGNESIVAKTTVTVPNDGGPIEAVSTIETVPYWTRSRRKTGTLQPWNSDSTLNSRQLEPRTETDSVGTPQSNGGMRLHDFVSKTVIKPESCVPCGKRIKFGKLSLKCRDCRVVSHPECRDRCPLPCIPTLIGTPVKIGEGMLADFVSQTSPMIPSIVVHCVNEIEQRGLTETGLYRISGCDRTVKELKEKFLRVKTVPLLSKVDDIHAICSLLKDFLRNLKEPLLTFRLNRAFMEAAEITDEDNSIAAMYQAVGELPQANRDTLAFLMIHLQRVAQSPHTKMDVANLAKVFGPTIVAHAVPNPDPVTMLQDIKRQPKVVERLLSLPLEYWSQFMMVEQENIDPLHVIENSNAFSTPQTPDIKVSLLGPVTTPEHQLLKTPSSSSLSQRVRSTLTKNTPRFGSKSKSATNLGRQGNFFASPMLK

[3] = target: T2, Mannose-6-phosphate isomerase (Homo sapiens, UniProt P34949); experiment: human PMI inhibitors, high substrate, primary screen, biochemical, fluorescence intensity, high mannose 6-phosphate (AID 1220)
T2 sequence (P34949 whole entry): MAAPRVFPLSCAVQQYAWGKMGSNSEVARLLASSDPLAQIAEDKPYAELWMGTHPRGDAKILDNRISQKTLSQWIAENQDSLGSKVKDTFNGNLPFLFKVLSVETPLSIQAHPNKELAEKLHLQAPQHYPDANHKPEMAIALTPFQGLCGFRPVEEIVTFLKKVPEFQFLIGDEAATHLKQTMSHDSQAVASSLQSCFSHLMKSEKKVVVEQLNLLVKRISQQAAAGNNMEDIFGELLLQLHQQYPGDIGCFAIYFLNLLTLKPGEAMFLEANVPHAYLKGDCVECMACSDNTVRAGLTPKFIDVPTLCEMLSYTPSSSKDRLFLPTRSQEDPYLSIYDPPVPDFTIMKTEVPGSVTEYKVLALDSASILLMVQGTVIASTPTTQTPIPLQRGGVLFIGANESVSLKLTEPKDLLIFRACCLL

[4] = target: Heat shock protein HSP 90-alpha (Homo sapiens, UniProt P07900); type: functional, organism-based
[5] = C. albicans growth with fluconazole, confirmation, fluorescence, retest (AID 2467); type: functional, cell-based
[6] = target: T2, Mannose-6-phosphate isomerase; experiment: inhibitors of human PMI, primary screen, biochemical, fluorescence intensity, coupled assay (AID 1209)
[7] = NIH-3T3 fibroblast cytotoxicity, dose response, cytotoxicity control, cell-based, fluorescence, Alamar Blue, secondary assay (AID 2327); type: functional;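 further: NIH-3T3 mouse fibroblasts cultured with fluconazole at 8 µg/mL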
[8] = target: Genome polyprotein (dengue virus type 2, UniProt P29990); experiment: Dengue-2 NS5 methyltransferase inhibitors, primary screen, biochemical, confirmation dose response (AID 588689); type: functional
[9] = target: 1-phosphatidylinositol 4,5-bisphosphate phosphodiesterase beta-3 (Homo sapiens, UniProt Q01970); experiment: Fluorescence-based biochemical high throughput dose response assay to identify inhibitors of phospholipase C isozymes (PLC-B3).
[10] = target: 1-phosphatidylinositol 4,5-bisphosphate phosphodiesterase gamma-1 (Homo sapiens, UniProt P19174); experiment: Counterscreen for inhibitors of phospholipase C isozymes (PLC-B3): Fluorescence-based biochemical high throughput dose response assay to identify inhibitors of phospholipase C isozymes (PLC-gamma1).
[11] = target: Glutathione-S-transferase (Schistosoma japonicum, UniProt Q26513); experiment: biotin-GST/anti-GST TR-FRET signal inhibitors, dose response, artefact control for Vif-APOBEC3G degradation inhibitor project, biochemical (AID 1117362); type: functional
[12] = target: Peroxisome proliferator-activated receptor gamma/Nuclear receptor corepressor 2 (Homo sapiens, UniProt P37231+Q9Y618); experiment: Counterscreen for NR2E3 inverse agonists: TR-FRET-based biochemical high throughput dose response assay to identify inverse agonists of the interaction between peroxisome proliferator-activated receptor gamma (PPARg) and nuclear receptor co-repressor 2 (NCOR2).; type: functional
[13] = target: Photoreceptor-specific nuclear receptor (Homo sapiens, UniProt Q9Y5X4); experiment: NR2E3 inverse agonists, dose response, biochemical, TR-FRET (AID 463256); type: functional
[14] = target: Peroxisome proliferator-activated receptor gamma/Nuclear receptor coactivator 3 (Homo sapiens, UniProt P37231); type: functional;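 further: agonist potency for raising coactivator recruitment to the receptor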
[15] = target: Peroxisome proliferator-activated receptor gamma/Nuclear receptor coactivator 1 (Homo sapiens, UniProt P37231); type: functional;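 further: agonist potency as compounds enhance coactivator SRC-1 recruitment to PPARgamma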
[16] = target: Peroxisome proliferator-activated receptor gamma/Nuclear receptor coactivator 2 (Homo sapiens, UniProt P37231); type: functional;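 further: agonist potency for raising coactivator recruitment to the receptor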
[17] = fibronectin fibrillogenesis inhibitors in fibroblasts, dose response, AH1F cells, Alexa488-fibronectin fluorescence, cherry-pick, set 2 (AID 1117283); type: functional, cell-based
[18] = HepG2 cell cytotoxicity, dose response, cytotoxicity control, cherry-picks, set 5 (AID 1053118); type: functional, cell-based
[19] = A549 cell cytotoxicity, dose response, cytotoxicity control, cherry-picks, 26 µM top dose (AID 1053119); type: functional, cell-based
[20] = target: G-protein coupled receptor 55 (Homo sapiens, UniProt Q9Y2T6); experiment: GPR55 agonists via beta-arrestin recruitment, primary screen, imaging, U2OS cells, beta-arrestin-GFP redistribution (AID 1961); type: functional
[21] = target: NADPH oxidase 1 (Homo sapiens, UniProt Q9Y5S8); experiment: Late-stage luminescence-based cell-based dose response assay to identify inhibitors of NADPH oxidase 1 (NOX1): Synthesized analogs.; type: functional
Sequence of NADPH oxidase 1 (Q9Y5S8 whole entry): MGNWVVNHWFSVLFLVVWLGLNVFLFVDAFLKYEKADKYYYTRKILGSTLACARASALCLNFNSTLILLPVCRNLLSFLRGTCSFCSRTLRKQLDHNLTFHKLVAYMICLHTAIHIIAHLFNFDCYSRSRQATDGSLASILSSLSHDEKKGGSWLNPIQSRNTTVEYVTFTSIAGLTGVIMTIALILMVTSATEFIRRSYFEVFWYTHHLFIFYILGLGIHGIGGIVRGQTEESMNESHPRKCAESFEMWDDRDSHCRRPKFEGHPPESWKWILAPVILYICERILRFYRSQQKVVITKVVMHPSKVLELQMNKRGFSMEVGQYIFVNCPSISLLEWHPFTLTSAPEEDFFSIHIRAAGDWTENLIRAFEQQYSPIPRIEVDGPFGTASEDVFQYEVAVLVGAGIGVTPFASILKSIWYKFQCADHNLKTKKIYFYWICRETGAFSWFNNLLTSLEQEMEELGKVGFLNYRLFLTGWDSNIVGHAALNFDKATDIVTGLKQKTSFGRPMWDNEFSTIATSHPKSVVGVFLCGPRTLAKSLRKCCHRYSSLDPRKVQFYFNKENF

Sequence of Glutathione-S-transferase (Q26513 whole entry): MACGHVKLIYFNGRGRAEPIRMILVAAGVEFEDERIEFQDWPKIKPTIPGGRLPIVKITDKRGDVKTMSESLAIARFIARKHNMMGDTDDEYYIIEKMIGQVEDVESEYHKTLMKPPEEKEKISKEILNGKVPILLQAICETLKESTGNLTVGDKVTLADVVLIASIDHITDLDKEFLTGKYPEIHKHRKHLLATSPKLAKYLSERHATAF
Sequence of 1-phosphatidylinositol 4,5-bisphosphate phosphodiesterase gamma-1 (P19174 whole entry): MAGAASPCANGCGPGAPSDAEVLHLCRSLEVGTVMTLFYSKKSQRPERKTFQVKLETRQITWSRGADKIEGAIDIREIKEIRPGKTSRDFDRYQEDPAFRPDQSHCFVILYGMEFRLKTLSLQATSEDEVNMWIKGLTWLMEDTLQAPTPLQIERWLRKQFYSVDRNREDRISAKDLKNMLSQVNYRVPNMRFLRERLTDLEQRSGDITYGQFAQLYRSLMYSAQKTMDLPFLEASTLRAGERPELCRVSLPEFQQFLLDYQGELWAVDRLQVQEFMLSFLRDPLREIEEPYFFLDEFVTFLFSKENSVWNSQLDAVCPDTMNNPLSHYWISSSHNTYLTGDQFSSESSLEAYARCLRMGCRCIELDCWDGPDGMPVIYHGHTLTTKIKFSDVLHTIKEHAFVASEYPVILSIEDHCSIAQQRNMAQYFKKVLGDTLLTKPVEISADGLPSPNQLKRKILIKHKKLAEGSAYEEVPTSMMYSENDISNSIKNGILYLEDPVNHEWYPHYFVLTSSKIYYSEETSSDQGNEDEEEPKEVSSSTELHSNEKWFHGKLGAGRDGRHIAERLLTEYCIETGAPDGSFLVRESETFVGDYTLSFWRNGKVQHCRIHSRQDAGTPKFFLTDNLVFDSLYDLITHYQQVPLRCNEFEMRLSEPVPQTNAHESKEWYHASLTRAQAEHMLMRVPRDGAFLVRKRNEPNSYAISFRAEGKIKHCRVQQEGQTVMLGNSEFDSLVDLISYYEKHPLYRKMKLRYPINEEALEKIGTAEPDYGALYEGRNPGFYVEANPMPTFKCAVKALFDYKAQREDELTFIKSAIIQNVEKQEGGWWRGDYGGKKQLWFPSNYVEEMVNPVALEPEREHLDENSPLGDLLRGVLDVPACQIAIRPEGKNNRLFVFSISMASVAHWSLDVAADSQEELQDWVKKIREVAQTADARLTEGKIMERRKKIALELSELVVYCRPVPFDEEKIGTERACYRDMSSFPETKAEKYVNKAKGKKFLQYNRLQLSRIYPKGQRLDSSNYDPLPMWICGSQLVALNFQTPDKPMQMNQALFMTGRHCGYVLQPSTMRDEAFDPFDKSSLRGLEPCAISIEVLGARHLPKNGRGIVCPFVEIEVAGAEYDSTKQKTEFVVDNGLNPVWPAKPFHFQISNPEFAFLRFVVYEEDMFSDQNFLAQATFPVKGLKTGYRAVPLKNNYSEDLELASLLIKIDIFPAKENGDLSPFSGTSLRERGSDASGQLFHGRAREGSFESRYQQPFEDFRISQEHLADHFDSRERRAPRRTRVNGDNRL
Sequence of Peroxisome proliferator-activated receptor gamma/Nuclear receptor corepressor 2 (P37231 whole entry): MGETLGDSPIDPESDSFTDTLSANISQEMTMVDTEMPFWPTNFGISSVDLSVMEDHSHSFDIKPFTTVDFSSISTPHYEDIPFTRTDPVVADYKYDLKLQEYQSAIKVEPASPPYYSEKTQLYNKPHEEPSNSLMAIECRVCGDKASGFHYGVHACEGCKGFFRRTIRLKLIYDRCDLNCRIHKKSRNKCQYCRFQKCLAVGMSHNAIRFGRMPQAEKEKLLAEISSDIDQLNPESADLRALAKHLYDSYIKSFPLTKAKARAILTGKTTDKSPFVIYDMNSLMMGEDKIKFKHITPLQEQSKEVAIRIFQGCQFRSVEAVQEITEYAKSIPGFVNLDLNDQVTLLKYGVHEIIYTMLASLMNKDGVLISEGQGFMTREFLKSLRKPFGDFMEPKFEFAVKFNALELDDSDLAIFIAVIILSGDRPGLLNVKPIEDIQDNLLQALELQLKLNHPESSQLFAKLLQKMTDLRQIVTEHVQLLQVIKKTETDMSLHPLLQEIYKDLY
Sequence of Peroxisome proliferator-activated receptor gamma/Nuclear receptor corepressor 2 (Q9Y618 whole entry): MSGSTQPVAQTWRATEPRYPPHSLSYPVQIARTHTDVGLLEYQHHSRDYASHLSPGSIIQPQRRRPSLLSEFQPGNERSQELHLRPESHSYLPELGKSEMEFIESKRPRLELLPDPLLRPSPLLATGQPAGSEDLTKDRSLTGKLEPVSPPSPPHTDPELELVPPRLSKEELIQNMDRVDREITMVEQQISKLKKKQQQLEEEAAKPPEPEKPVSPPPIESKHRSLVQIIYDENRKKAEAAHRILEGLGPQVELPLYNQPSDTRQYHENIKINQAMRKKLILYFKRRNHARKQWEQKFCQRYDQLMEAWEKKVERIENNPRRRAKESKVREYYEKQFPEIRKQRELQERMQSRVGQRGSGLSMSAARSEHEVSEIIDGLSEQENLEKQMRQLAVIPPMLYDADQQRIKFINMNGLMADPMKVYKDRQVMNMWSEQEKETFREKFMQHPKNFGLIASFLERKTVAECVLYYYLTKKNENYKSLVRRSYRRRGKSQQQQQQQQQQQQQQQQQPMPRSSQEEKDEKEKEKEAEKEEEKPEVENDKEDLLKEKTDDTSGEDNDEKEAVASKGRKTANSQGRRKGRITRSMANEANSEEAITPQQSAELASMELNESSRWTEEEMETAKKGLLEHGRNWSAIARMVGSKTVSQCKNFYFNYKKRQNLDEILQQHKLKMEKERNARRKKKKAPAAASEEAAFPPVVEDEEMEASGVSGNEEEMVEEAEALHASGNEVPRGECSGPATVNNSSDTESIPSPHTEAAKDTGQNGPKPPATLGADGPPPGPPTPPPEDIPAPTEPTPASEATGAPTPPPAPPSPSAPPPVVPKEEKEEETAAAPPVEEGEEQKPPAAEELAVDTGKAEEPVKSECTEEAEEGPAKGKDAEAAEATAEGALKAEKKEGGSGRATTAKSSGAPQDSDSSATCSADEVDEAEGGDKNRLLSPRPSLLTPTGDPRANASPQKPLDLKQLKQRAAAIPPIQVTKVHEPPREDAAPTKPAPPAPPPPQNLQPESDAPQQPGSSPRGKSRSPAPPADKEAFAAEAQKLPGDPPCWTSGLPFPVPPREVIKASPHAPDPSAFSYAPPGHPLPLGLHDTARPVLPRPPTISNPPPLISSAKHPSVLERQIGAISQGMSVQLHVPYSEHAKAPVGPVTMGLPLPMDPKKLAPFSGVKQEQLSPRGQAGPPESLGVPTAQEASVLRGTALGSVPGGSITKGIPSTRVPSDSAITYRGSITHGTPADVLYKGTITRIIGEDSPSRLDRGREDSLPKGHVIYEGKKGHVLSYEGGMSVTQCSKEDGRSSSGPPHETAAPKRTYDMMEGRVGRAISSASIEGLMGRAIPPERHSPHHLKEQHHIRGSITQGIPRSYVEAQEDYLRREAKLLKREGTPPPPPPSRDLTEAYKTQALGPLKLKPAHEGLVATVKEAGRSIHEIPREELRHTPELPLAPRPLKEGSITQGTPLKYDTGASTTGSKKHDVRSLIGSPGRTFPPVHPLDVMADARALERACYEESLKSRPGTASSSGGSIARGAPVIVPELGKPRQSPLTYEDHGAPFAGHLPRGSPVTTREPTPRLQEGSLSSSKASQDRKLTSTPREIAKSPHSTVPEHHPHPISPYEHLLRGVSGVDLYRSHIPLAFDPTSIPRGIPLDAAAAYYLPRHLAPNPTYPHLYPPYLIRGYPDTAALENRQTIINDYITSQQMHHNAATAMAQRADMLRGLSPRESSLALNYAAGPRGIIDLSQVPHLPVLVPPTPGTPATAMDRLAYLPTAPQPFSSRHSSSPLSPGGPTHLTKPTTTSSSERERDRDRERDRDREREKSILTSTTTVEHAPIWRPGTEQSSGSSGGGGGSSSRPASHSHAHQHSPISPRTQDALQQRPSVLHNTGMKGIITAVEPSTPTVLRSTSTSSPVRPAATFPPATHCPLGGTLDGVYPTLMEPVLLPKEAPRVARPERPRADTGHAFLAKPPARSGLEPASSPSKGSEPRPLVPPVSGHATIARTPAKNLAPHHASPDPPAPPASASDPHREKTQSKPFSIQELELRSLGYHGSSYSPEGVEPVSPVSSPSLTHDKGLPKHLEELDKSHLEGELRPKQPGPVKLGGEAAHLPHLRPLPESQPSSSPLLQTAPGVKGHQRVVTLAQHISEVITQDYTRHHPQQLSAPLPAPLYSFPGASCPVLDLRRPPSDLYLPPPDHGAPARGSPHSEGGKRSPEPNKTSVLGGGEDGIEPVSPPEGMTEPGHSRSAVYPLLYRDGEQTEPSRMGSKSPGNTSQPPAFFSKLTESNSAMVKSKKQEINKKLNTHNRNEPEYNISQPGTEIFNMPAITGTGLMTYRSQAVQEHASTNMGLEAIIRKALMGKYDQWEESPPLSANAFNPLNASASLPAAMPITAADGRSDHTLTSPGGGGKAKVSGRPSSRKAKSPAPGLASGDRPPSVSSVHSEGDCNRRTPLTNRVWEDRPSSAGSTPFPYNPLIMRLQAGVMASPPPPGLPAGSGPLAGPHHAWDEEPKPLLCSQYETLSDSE

SMILES: COc1ccc2c3c([nH]c2c1)[C@H](CO)N(C(C)=O)CC31CCN(S(=O)(=O)c2ccccc2)CC1
AC50 [1]: 9.86 µM (active)

SMILES: Cc1ccc(/C=[N+](\[O-])c2ccc(N(C)C)cc2)c2nsnc12
IC50 [2]: 9.25 µM (active)
IC50 [3]: > 50 µM (not active)
AC50 [4]: 7.84 µM (active)
EC50 [5]: 2.41 µM (active)
IC50 [6]: > 50 µM (not active)
EC50 [7]: 8.84 µM (inconclusive)

SMILES: O=C(c1cccnc1)N1C[C@@H]2[C@H](c3ccccc31)[C@H](CO)N2CC1CCCC1
AC50 [17]: > 60 µM (inactive)
AC50 [18]: > 47 µM (inactive)
AC50 [19]: > 47 µM (inactive)

Continued, values first:

IC50 [8]: 14.6 µM (active)
IC50 [9]: > 122 µM (inactive)
IC50 [10]: > 122 µM (inactive)
IC50 [2]: 13.3 µM (active)
IC50 [11]: > 100 µM (active)
SMILES: O=C(O)c1cccc2cccc(-c3c4ccc(=O)c(O)c-4oc4c(O)c(O)ccc34)c12

IC50 [12]: 0.152 µM (active)
IC50 [13]: 0.167 µM (active)
EC50 [14]: 18.3 µM (not active)
EC50 [15]: 13.3 µM (not active)
EC50 [16]: 14.5 µM (not active)
SMILES: Cn1c(SCC(=O)Nc2cccc(Br)c2)nnc1-c1cc2ccccc2o1

EC50 [20]: > 32 µM (inactive)
IC50 [21]: > 50 µM (not active)
SMILES: O=C(CSc1nc2ccccc2o1)N1c2ccccc2Sc2ccc(C(F)(F)F)cc21
